Patent US5366982A (priority 1990, dated 1994)
Read-outs that look alike come from different tables or passages of the source.

Tests used:
[1] = test system: guinea-pig pulmonary parenchyma; test: L. Parenchyma: guinea-pig pulmonary parenchyma contraction antagonism induced by LTB4 (Sirois); type: cell-based; conditions: read-out: IC50 L. Parenchyma
Method: Further, compounds of this invention are shown to be leukotriene B4 antagonists in the technique of guinea-pig pulmonary parenchyma contraction antagonism induced by LTB4 described by P. Sirois et al., Pharmacology, 31, 225-236 (1985). In this technique, products are active at concentrations of between about 1 to about 10,000 nM.

leukotriene B4 receptors = leukotriene B4 receptors (Cavia porcellus, UniProt H0VYV8); test: biochemical; type: binding, guinea-pig; conditions: Table XIX; guinea-pig spleen membranes, tritium-labelled LTB4; read-out: IC50 Binding (Cheng)
Sequence of leukotriene B4 receptors (H0VYV8 1-348): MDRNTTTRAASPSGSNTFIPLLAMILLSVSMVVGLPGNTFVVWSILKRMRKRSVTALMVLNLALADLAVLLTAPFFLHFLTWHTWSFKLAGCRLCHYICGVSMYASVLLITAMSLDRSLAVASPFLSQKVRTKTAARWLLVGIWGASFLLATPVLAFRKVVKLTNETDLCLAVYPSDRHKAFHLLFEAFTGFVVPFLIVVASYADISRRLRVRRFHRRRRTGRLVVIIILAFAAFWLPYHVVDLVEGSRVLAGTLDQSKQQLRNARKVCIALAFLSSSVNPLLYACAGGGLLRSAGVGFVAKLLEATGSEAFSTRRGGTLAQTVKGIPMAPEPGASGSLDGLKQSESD

[2] = Cavia porcellus, Table XIX, guinea-pig pulmonary parenchyma contraction induced by LTB4

IC50 (leukotriene B4 receptors) [nM] | IC50 ([1]; Table XIX, guinea-pig pulmonary parenchyma contraction induced by LTB4) [nM] | IC50 [1, 2] [nM] | Compound | IC50 ([1]; Cavia porcellus) [nM]
4 | 200 | – | 6-[(6-cyclopropyl-5-phenyl-2-pyridyl)oxy]-2,2-dimethylhexanoic acid | –
13 | – | 1000 | CC(C)(CCCCOc1cc(-c2cccc(Cl)c2)cc(-c2ccccc2)n1)C(=O)O [2,2-dimethyl-6-{[4-(3-chlorophenyl)-6-phenyl-2-pyridyl]oxy}hexanoic acid] | –
2 | – | 30 | COc1cccc(-c2cc(OCCCCC(C)(C)C(=O)O)nc(-c3ccccc3)c2)c1 [2,2-dimethyl-6-{[4-(3-methoxyphenyl)-6-phenyl-2-pyridyl]oxy}hexanoic acid] | –
10 | – | 1 | CC(C)(CCCCOc1cc(-c2ccc(N)cc2)cc(-c2ccccc2)n1)C(=O)O [2,2-dimethyl-6-{[4-(4-aminophenyl)-6-phenyl-2-pyridyl]oxy}hexanoic acid] | –
7 | – | 300 | CC(C)(CCCCOc1cc(-c2ccc(F)cc2)cc(-c2ccccc2)n1)C(=O)O [2,2-dimethyl-6-{[4-(4-fluorophenyl)-6-phenyl-2-pyridyl]oxy}hexanoic acid] | –
50 | – | 170 | COc1ccc(-c2cc(OCCCCC(C)(C)C(=O)O)nc(-c3ccccc3)c2)cc1 [2,2-dimethyl-6-{[4-(4-methoxyphenyl)-6-phenyl-2-pyridyl]oxy}hexanoic acid] | –
15 | – | 1000 | CC(C)(CCCCOc1cc(-c2ccccc2)cc(-c2cccs2)n1)C(=O)O [2,2-dimethyl-6-{[4-phenyl-6-(2-thienyl)-2-pyridyl]oxy}hexanoic acid] | –
5 | – | 100 | CC(C)(CCCCOc1cc(-c2ccccc2)cc(-c2ccsc2)n1)C(=O)O [2,2-dimethyl-6-{[4-phenyl-6-(3-thienyl)-2-pyridyl]oxy}hexanoic acid] | –
5 | – | 80 | CC(C)(CCCCOc1cc(-c2ccccc2)cc(-c2ccccc2F)n1)C(=O)O [2,2-dimethyl-6-{[6-(2-fluorophenyl)-4-phenyl-2-pyridyl]oxy}hexanoic acid] | –
17 | – | 30 | CCC(C)(CCCCOc1cc(-c2ccccc2)cc(-c2ccccc2)n1)C(=O)O (centres unmarked) [2-ethyl-2-methyl-6-[(4,6-diphenyl-2-pyridyl)oxy]hexanoic acid] | –
3 | – | 70 | CCC(CCCCOc1cc(-c2ccccc2)cc(-c2ccccc2)n1)C(=O)O (centres unmarked) [2-ethyl-6-[(4,6-diphenyl-2-pyridyl)oxy]hexanoic acid] | –
4 | – | 10 | CC(CCCCOc1cc(-c2ccccc2)cc(-c2ccccc2)n1)C(=O)O (centres unmarked) [2-methyl-6-[(4,6-diphenyl-2-pyridyl)oxy]hexanoic acid] | –
7 | – | 2.5 | CC(CCCCOc1cc(-c2ccc3c(c2)OCO3)cc(-c2ccccc2)n1)C(=O)O (centres unmarked) [2-methyl-6-{[4-(3,4-methylenedioxyphenyl)-6-phenyl-2-pyridyl]oxy}hexanoic acid] | –
1.7 | – | 60 | CC(CCCCOc1cc(-c2ccc(F)cc2)cc(-c2ccccc2)n1)C(=O)O (centres unmarked) [2-methyl-6-{[4-(4-fluorophenyl)-6-phenyl-2-pyridyl]oxy}hexanoic acid] | –
– | – | 20 | Cc1ccc(-c2cc(OCCCCC(C)C(=O)O)nc(-c3ccccc3)c2)cc1 (centres unmarked) [2-methyl-6-{[4-(4-methylphenyl)-6-phenyl-2-pyridyl]oxy}hexanoic acid] | –
4 | – | 6 | CC(CCCCOc1cc(-c2ccccc2)cc(-c2ccccc2F)n1)C(=O)O (centres unmarked) [2-methyl-6-{[6-(2-fluorophenyl)-4-phenyl-2-pyridyl]oxy}hexanoic acid] | –
350 | – | 10000 | O=C(O)c1ccc(COc2cc(-c3ccccc3)cc(-c3ccccc3)n2)cc1 [4-[(4,6-diphenyl-2-pyridyl)oxymethyl]benzoic acid] | –
50 | – | 2000 | O=C(O)CCCCOc1cc(-c2ccccc2)cc(-c2ccccc2)n1 [5-[(4,6-diphenyl-2-pyridyl)oxy]pentanoic acid] | –
7 | – | 20 | CC(C)(CCCCOc1cc(-c2ccccc2)cc(-c2ccccc2)n1)c1nnn[nH]1 [5-{1,1-dimethyl-5-[(4,6-diphenyl-2-pyridyl)oxy]pentyl}-[1H]-tetrazole] | –
– | – | 10 | c1ccc(-c2cc(OCCCCCc3nn[nH]n3)nc(-c3ccccc3)c2)cc1 [5-{[5-(4,6-diphenyl-2-pyridyl)oxy]pentyl}-[1H]-tetrazole] | –
160 | – | > 1000 | NC(=O)CCCCCOc1cc(-c2ccccc2)cc(-c2ccccc2)n1 [6-[(4,6-diphenyl-2-pyridyl)oxy]hexanamide] | –
3 | – | 300 | O=C(O)CCCCCOc1cc(-c2ccccc2)cc(-c2ccccc2)n1 [6-[(4,6-diphenyl-2-pyridyl)oxy]hexanoic acid] | –
10 | – | 1000 | CC(C)(CCCCOc1nc(-c2ccccc2)cc(-c2ccccc2)n1)C(=O)O [6-[(4,6-diphenyl-2-pyrimidyl)oxy]-2,2-dimethylhexanoic acid] | –

IC50 (leukotriene B4 receptors) [nM] | IC50 ([1]; Table XIX, guinea-pig pulmonary parenchyma contraction induced by LTB4) [nM] | IC50 [1, 2] [nM] | Compound | IC50 ([1]; Cavia porcellus) [nM]
40 | – | 3000 | CC(C)(CCCCOc1cc(-c2ccccc2)ccn1)C(=O)O [6-[(4-phenyl-2-pyridyl)oxy]-2,2-dimethylhexanoic acid] | –
40 | – | 1000 | CC(C)(CCCCOc1cc(-c2ccccc2)cc(C(C)(C)C)n1)C(=O)O [6-[(6-ter-butyl-4-phenyl-2-pyridyl)oxy]-2,2-dimethylhexanoic acid] | –
300 | – | 2000 | CC(C)(C)c1cc(-c2ccccc2)cc(OCCCCCC(=O)O)n1 [6-[(6-ter-butyl-5-phenyl-2-pyridyl)oxy]hexanoic acid] | –
– | – | 1700 | O=C(O)CCCCCOc1cc(-c2ccccc2F)cc(-c2ccccc2)n1 [6-{[4-(2-fluorophenyl)-6-phenyl-2-pyridyl]oxy}hexanoic acid] | –
1 | – | 5 | O=C(O)CCCCCOc1cc(-c2ccc3c(c2)OCO3)cc(-c2ccccc2)n1 [6-{[4-(3,4-methylenedioxyphenyl)-6-phenyl-2-pyridyl]oxy}hexanoic acid] | –
3 | – | 200 | O=C(O)CCCCCOc1cc(-c2cccc(F)c2)cc(-c2ccccc2)n1 [6-{[4-(3-fluorophenyl)-6-phenyl-2-pyridyl]oxy}hexanoic acid] | –
8 | – | 200 | COc1cccc(-c2cc(OCCCCCC(=O)O)nc(-c3ccccc3)c2)c1 [6-{[4-(3-methoxyphenyl)-6-phenyl-2-pyridyl]oxy}hexanoic acid] | –
– | – | 40 | Nc1ccc(-c2cc(OCCCCCC(=O)O)nc(-c3ccccc3)c2)cc1 [6-{[4-(4-aminophenyl)-6-phenyl-2-pyridyl]oxy}hexanoic acid] | –
10 | – | 100 | O=C(O)CCCCCOc1cc(-c2ccc(Cl)cc2)cc(-c2ccccc2)n1 [6-{[4-(4-chlorophenyl)-6-phenyl-2-pyridyl]oxy}hexanoic acid] | –
– | – | 6000 | CN(C)c1ccc(-c2cc(OCCCCCC(=O)O)nc(-c3ccccc3)c2)cc1 [6-{[4-(4-dimethylaminophenyl)-6-phenyl-2-pyridyl]oxy}hexanoic acid] | –
10 | – | 1000 | O=C(O)CCCCCOc1cc(-c2ccc(F)cc2)cc(-c2ccccc2F)n1 [6-{[4-(4-fluorophenyl)-6-(2-fluorophenyl)-2-pyridyl]oxy}hexanoic acid] | –
3 | – | 800 | O=C(O)CCCCCOc1cc(-c2ccc(F)cc2)cc(-c2ccccc2)n1 [6-{[4-(4-fluorophenyl)-6-phenyl-2-pyridyl]oxy}hexanoic acid] | –
15 | – | 1100 | COc1ccc(-c2cc(OCCCCCC(=O)O)nc(-c3ccccc3)c2)cc1 [6-{[4-(4-methoxyphenyl)-6-phenyl-2-pyridyl]oxy}hexanoic acid] | –
– | – | 150 | CNc1ccc(-c2cc(OCCCCCC(=O)O)nc(-c3ccccc3)c2)cc1 [6-{[4-(4-methylaminophenyl)-6-phenyl-2-pyridyl]oxy}hexanoic acid] | –
15 | – | 100 | Cc1ccc(-c2cc(OCCCCCC(=O)O)nc(-c3ccccc3)c2)cc1 [6-{[4-(4-methylphenyl)-6-phenyl-2-pyridyl]oxy}hexanoic acid] | –
10 | – | 3000 | CSc1ccc(-c2cc(OCCCCCC(=O)O)nc(-c3ccccc3)c2)cc1 [6-{[4-(4-methylthiophenyl)-6-phenyl-2-pyridyl]oxy}hexanoic acid] | –
50 | – | 300 | O=C(O)CCCCCOc1cc(-c2ccccc2)cc(-c2cccs2)n1 [6-{[4-phenyl-6-(2-thienyl)-2-pyridyl]oxy}hexanoic acid] | –
10 | – | 1000 | O=C(O)CCCCCOc1cc(-c2ccccc2)cc(-c2ccsc2)n1 [6-{[4-phenyl-6-(3-thienyl)-2-pyridyl]oxy}hexanoic acid] | –
3 | – | 60 | O=C(O)CCCCCOc1cc(-c2ccccc2)cc(-c2ccccc2F)n1 [6-{[6-(2-fluorophenyl)-4-phenyl-2-pyridyl]oxy}hexanoic acid] | –
4 | – | 150 | O=C(O)CCCCCOc1cc(-c2ccccc2)cc(-c2cccc(F)c2)n1 [6-{[6-(3-fluorophenyl)-4-phenyl-2-pyridyl]oxy}hexanoic acid] | –
1200 | – | > 10000 | COc1ccc(-c2cc(OCCCCCC(=O)O)nc(-c3ccc(Cl)cc3)c2)cc1 [6-{[6-(4-chlorophenyl)-4-(4-methoxyphenyl)-2-pyridyl]oxy}hexanoic acid] | –
30 | – | 1700 | O=C(O)CCCCCOc1cc(-c2ccccc2)cc(-c2ccc(F)cc2)n1 [6-{[6-(4-fluorophenyl)-4-phenyl-2-pyridyl]oxy}hexanoic acid] | –

Compound | IC50 (leukotriene B4 receptors) [nM] | IC50 ([1]; Table XIX, guinea-pig pulmonary parenchyma contraction induced by LTB4) [nM] | IC50 [1, 2] [nM] | IC50 ([1]; Cavia porcellus) [nM]
O=C(O)CCCCCOc1cc(-c2ccccc2)cc(-c2ccccc2Cl)n1 | 1.8 | – | – | 200
